One series has as its system mice. In words: Interaction with fenbufen and toxicological study (coadministration test with fenbufen). It is filed as in vivo. How it is done: Fenbufen and the quinolone compounds were each diluted with a solution of 0.5% methylcellulose.
A dose of 200 mg/kg of fenbufen was administered by oral route to groups of 10 mice (female, ICR, 18-23 g) 90 minutes before administration of the quinolone compounds by oral route, at a dose of 500 mg/kg. […] Following the 24 hours number of survival animals was noted.

Series [1] can be described thus: Partition coefficient, phosphate buffer/n-octanol. It is filed as physicochemical. The following applies: n-octanol/50 mm phosphate buffer; 50 mM phosphate buffer (pH 7.4, μ=0.15)/n-octanol. Here is the method:
Following the method proposed by Akira Tsuji et al. in Antimicrob. Agents Chemother., 32, 190-194 (1988), 50 mM phosphate buffer (pH 7.4, μ=0.15)/n-octanol partition coefficients were measured.

Series [2] deals with S. aureus 209 P (IFO 12732). Description: Minimum inhibitory concentration, standard method of the Japan Society of Chemotherapy. The class given is cell-based. The following applies: Staphylococcus aureus, IFO12732. Here is the method: (§1) With respect to certain representative compounds among the compounds [I] of the present invention, their minimum inhibitory concentrations (MIC; μg/ml) were measured in accordance with the standard method established by the Japan Society of Chemotherapy [CHEMOTHERAPY, 29(1), 76-79 (1981)]. The results are summarized in Table 1, in which the compound numbers are as shown in examples.

Series [3] concerns E. coli NIH JC-2 (IFO 12734). The description is as above. The class given is cell-based. The following applies: Escherichia coli, IFO12734. Here is the method:
as §1

The subject of another series is P. aeruginosa (IFO 3445). The description is as above. The class given is cell-based. The following applies: Pseudomonas aeruginosa, IFO3445. How it is done: as §1

Each structure is given as a SMILES string. In brackets after ≈: the same amount, converted by molar mass.

32 molecules from patent publication US5407932A, “Quinolone derivatives and antibacterial agents containing the same” (Wakunaga Seiyaku Kabushiki Kaisha, priority 1989, dated 1995) can be followed below.

One may read the logD as the decadic logarithm of the distribution of all forms, ionised or not, between an organic phase and buffer at a given pH. A higher logD goes with higher lipophilicity. The term MIC denotes the lowest concentration that inhibits growth of the organism.

In the case of `C[C@H]1CN(c2c(F)c(N)c3c(=O)c(C(=O)O)cn(C4COC4)c3c2F)C[C@H]1N.O=S(=O)(O)O` (single isomer, unassigned) [Compound 117, 5-Amino-7-{(-)-cis-3-amino-4-methylpyrrolidin-1-yl}-6,8-difluoro-1-(oxetan-3-yl) -1,4-dihydro-4-oxoquinoline-3-carboxylic acid sulfuric acid salt], in the series on mice (quinolone 500 mg/kg oral, 90 min after fenbufen 200 mg/kg oral, 24 hours), the “Mortality, number of dead mice” value is given as 0/10. Besides, the “Induction of convulsion, number of positive mice” value (“Induction of convulsion” for short) in the series on mice (quinolone 500 mg/kg oral, 90 min after fenbufen 200 mg/kg oral, during two hours) is listed as 0/10.
`C[C@H]1CN(c2c(F)c(N)c3c(=O)c(C(=O)O)cn(C4COC4)c3c2F)C[C@H]1N` (single isomer, unassigned) [Compound 113, 5-Amino-7-{(-)-cis-3-amino-4-methylpyrrolidin-1-yl}-6,8-difluoro-1-(oxetan-3-yl)-1,4-dihydro-4-oxoquinoline-3-carboxylic acid] showed a logD in series [1] of -0.529.
On to `Nc1c(F)c(N2CCSCC2)c(F)c2c1c(=O)c(C(=O)O)cn2C1COC1` [Compound 28], for which the MIC came to 0.78 µg/mL (≈ 1.96 µM) in series [2], 0.78 µg/mL (≈ 1.96 µM) in series [3] and 6.25 µg/mL (≈ 15.7 µM) against P. aeruginosa (IFO 3445).
Regarding `O=C(O)c1cn(C2COC2)c2c(F)c(N3CC(O)C3)c(F)cc2c1=O` [Compound 17], the MIC came out at 3.13 µg/mL (≈ 8.88 µM) in series [2], 0.78 µg/mL (≈ 2.21 µM) in series [3] and 6.25 µg/mL (≈ 17.7 µM) with P. aeruginosa (IFO 3445).
The like results for `NC1CCN(c2c(F)cc3c(=O)c(C(=O)O)cn(C4COC4)c3c2F)C1` (centres unmarked) [Compound 18] were, in that order, 1.56 µg/mL (≈ 4.27 µM), 0.39 µg/mL (≈ 1.07 µM) and 1.56 µg/mL (≈ 4.27 µM).
The like results for `CN1CCN(c2cc3c(cc2F)c(=O)c(C(=O)O)cn3C2COC2)CC1` [Compound 35, 6-Fluoro-7-(4-methylpiperazin-1-yl)-1-(oxetan-3-yl)-1,4-dihydro-4-oxoquinoline-3-carboxylic acid] were, in that order, 1.56 µg/mL (≈ 4.32 µM), 0.2 µg/mL (≈ 0.553 µM) and 3.13 µg/mL (≈ 8.66 µM).
The like results for `C[C@@H]1CN(c2c(F)c(N)c3c(=O)c(C(=O)O)cn(C4COC4)c3c2F)C[C@H]1N` (relative stereo) [Compound 101] were, in that order, 0.2 µg/mL (≈ 0.507 µM), 0.1 µg/mL (≈ 0.254 µM) and 0.78 µg/mL (≈ 1.98 µM).
In series [1], `CN1CCN(c2c(F)c(N)c3c(=O)c(C(=O)O)cn(C4COC4)c3c2F)CC1` [Compound 29] had a logD of -0.333. For the same molecule, the MIC in series [2] is 0.78 µg/mL (≈ 1.98 µM); in series [3], 0.1 µg/mL (≈ 0.254 µM); with P. aeruginosa (IFO 3445), 0.78 µg/mL (≈ 1.98 µM). Moreover, the “Induction of convulsion” value in the series with mice (mouse, in vivo) was 0/10. For the same molecule, in the series with mice (mouse, in vivo), the “Mortality, number of dead mice” value was 0/10.
With `CN(C)NC1CCN(c2c(F)c(N)c3c(=O)c(C(=O)O)cn(C4COC4)c3c2F)C1` (centres unmarked) [Compound 96], the MIC in series [2] worked out at 0.39 µg/mL (≈ 0.921 µM); in series [3], 0.1 µg/mL (≈ 0.236 µM); with P. aeruginosa (IFO 3445) it was 0.78 µg/mL (≈ 1.84 µM).
In the same order, the values of `N=CNC1CCN(c2c(F)c(N)c3c(=O)c(C(=O)O)cn(C4COC4)c3c2F)C1` (centres unmarked) [Compound 110] are 1.56 µg/mL (≈ 3.83 µM), 0.78 µg/mL (≈ 1.91 µM) and 6.25 µg/mL (≈ 15.3 µM).
The like results for `Nc1c(F)c(N2CC(N)C2)c(F)c2c1c(=O)c(C(=O)O)cn2C1COC1` [Compound 49] were, in that order, 1.56 µg/mL (≈ 4.26 µM), 0.78 µg/mL (≈ 2.13 µM) and 3.13 µg/mL (≈ 8.54 µM).
The like results for `Nc1c(F)c(N2Cc3ccccc3C2)c(F)c2c1c(=O)c(C(=O)O)cn2C1COC1` [Compound 30] were, in that order, 0.2 µg/mL (≈ 0.484 µM), 0.78 µg/mL (≈ 1.89 µM) and 3.13 µg/mL (≈ 7.57 µM).
For `C[C@H]1CN(c2c(F)cc3c(=O)c(C(=O)O)cn(C4COC4)c3c2F)C[C@H]1N` (relative stereo) [Compound 102], the MIC in series [2] amounted to 0.39 µg/mL (≈ 1.03 µM); in series [3], 0.1 µg/mL (≈ 0.264 µM); against P. aeruginosa (IFO 3445) it was 0.78 µg/mL (≈ 2.06 µM).
The like results for `NC1CCN(c2cc3c(cc2F)c(=O)c(C(=O)O)cn3C2COC2)C1` (centres unmarked) [Compound 37] were, in that order, 1.56 µg/mL (≈ 4.49 µM), 0.39 µg/mL (≈ 1.12 µM) and 1.56 µg/mL (≈ 4.49 µM).
In the same order, the values of `CN(C)C1CCN(c2nc3c(cc2F)c(=O)c(C(=O)O)cn3C2COC2)C1` (centres unmarked) [Compound 66] are 3.13 µg/mL (≈ 8.32 µM), 0.39 µg/mL (≈ 1.04 µM) and 3.13 µg/mL (≈ 8.32 µM).
As for `CNCC1CCN(c2c(F)c(N)c3c(=O)c(C(=O)O)cn(C4COC4)c3c2F)C1` (centres unmarked) [Compound 52], the values for the MIC (in series [2]; in series [3]; in the series with P. aeruginosa (IFO 3445)) were 0.1 µg/mL (≈ 0.245 µM), 0.78 µg/mL (≈ 1.91 µM) and 3.13 µg/mL (≈ 7.66 µM), respectively.
The like results for `O=C(O)c1cn(C2COC2)c2c(F)c(N3CCSCC3)c(F)cc2c1=O` [Compound 7] were, in that order, 0.39 µg/mL (≈ 1.02 µM), 0.78 µg/mL (≈ 2.04 µM) and 3.13 µg/mL (≈ 8.19 µM).
The like results for `Nc1c(F)c(N2CCNCC2)c(F)c2c1c(=O)c(C(=O)O)cn2C1COC1` [Compound 55] were, in that order, 0.78 µg/mL (≈ 2.05 µM), 0.39 µg/mL (≈ 1.03 µM) and 0.78 µg/mL (≈ 2.05 µM).
The like results for `CC(=N)N1CCN(c2c(F)c(N)c3c(=O)c(C(=O)O)cn(C4COC4)c3c2F)CC1` [Compound 109] were, in that order, 0.78 µg/mL (≈ 1.85 µM), 0.39 µg/mL (≈ 0.925 µM) and 3.13 µg/mL (≈ 7.43 µM).
With `NC1CN(c2cc3c(cc2F)c(=O)c(C(=O)O)cn3C2COC2)C1` [Compound 41], the MIC in series [2] is 12.5 µg/mL (≈ 37.5 µM); in series [3], 0.78 µg/mL (≈ 2.34 µM); in the series on P. aeruginosa (IFO 3445), 6.25 µg/mL (≈ 18.8 µM).
The like results for `CCNC1CCN(c2c(F)c(N)c3c(=O)c(C(=O)O)cn(C4COC4)c3c2F)C1` (centres unmarked) [Compound 51] were, in that order, 1.56 µg/mL (≈ 3.82 µM), 0.78 µg/mL (≈ 1.91 µM) and 3.13 µg/mL (≈ 7.66 µM).
In the same order, the values of `CN[C@@H]1CN(c2c(F)cc3c(=O)c(C(=O)O)cn(C4COC4)c3c2F)C[C@H]1C` (relative stereo) [Compound 91] are 0.78 µg/mL (≈ 1.98 µM), 0.2 µg/mL (≈ 0.508 µM) and 1.56 µg/mL (≈ 3.97 µM).
The like results for `Nc1c(F)c(N2CCCC2)c(F)c2c1c(=O)c(C(=O)O)cn2C1COC1` [Compound 27, 5-Amino-6,8-difluoro-1-(oxetan-3-yl)-7-(pyrrolidin-1-yl)-1,4-dihydro-4-oxoquinoline-3-carboxylic acid] were, in that order, 0.2 µg/mL (≈ 0.547 µM), 0.39 µg/mL (≈ 1.07 µM) and 3.13 µg/mL (≈ 8.57 µM).
Turning to `C[C@@H]1CN(c2c(F)cc3c(=O)c(C(=O)O)cn(C4COC4)c3c2F)C[C@H]1N.O=C(O)C(F)(F)F` (relative stereo) [Compound 97, 7-(Trans-3-amino-4-methylpyrrolidin-1-yl)-6,8-difluoro-1-(oxetan-3-yl)-1,4-dihydro-4-oxoquinoline-3-carboxylic acid trifluoroacetic acid salt], the MIC in series [2] turned out to be 0.78 µg/mL; in series [3], 0.39 µg/mL; in the series with P. aeruginosa (IFO 3445) it was 1.56 µg/mL.
In the same order, the values of `NCC1CCN(c2c(F)c(N)c3c(=O)c(C(=O)O)cn(C4COC4)c3c2F)C1` (centres unmarked) [Compound 32] are 0.1 µg/mL (≈ 0.254 µM), 0.78 µg/mL (≈ 1.98 µM) and 3.13 µg/mL (≈ 7.94 µM).
The like results for `CN(C)CC1CCN(c2cc3c(cc2F)c(=O)c(C(=O)O)cn3C2COC2)C1` (centres unmarked) [Compound 40] were, in that order, 0.78 µg/mL (≈ 2 µM), 0.39 µg/mL (≈ 1 µM) and 6.25 µg/mL (≈ 16 µM).
The like results for `O=C(O)c1cn(C2COC2)c2c(F)c(N3CCCC3)c(F)cc2c1=O` [Compound 4, 6,8-Difluoro-1-(oxetan-3-yl)-7-(pyrrolidin-1-yl)-1,4-dihydro-4-oxoquinoline-3-carboxylic acid] were, in that order, 0.2 µg/mL (≈ 0.571 µM), 0.39 µg/mL (≈ 1.11 µM) and 1.56 µg/mL (≈ 4.45 µM).
Take `O=C(O)c1cn(C2COC2)c2cc(N3CCC(O)C3)c(F)cc2c1=O` (centres unmarked) [Compound 42]: the MIC in series [2] came to 1.56 µg/mL (≈ 4.48 µM); in series [3], 0.78 µg/mL (≈ 2.24 µM); against P. aeruginosa (IFO 3445), 3.13 µg/mL (≈ 8.99 µM).
In the case of `CCn1cc(C(=O)O)c(=O)c2cc(F)c(N3CCNCC3)nc21` [Enoxacin, enoxacin, reference compound], in the series with mice (mouse, in vivo), the “Induction of convulsion” value is recorded as 10/10 and the “Mortality, number of dead mice” value is 10/10.
In the case of `CCNCC1CCN(c2c(F)cc3c(=O)c(C(=O)O)cn(C4COC4)c3c2F)C1` (centres unmarked) [Compound 47], the figures for the MIC (in series [2]; in series [3]; against P. aeruginosa (IFO 3445)) were 0.2 µg/mL (≈ 0.491 µM), 0.78 µg/mL (≈ 1.91 µM) and 6.25 µg/mL (≈ 15.3 µM), respectively.
The like results for `CCNCC1CCN(c2c(F)cc3c(=O)c(C(=O)O)cn(C4COC4)c3c2OC)C1` (centres unmarked) [Compound 79] were, in that order, 0.1 µg/mL (≈ 0.238 µM), 1.56 µg/mL (≈ 3.72 µM) and 25 µg/mL (≈ 59.6 µM).
The like results for `Cl.N=CN1CCN(c2c(F)c(N)c3c(=O)c(C(=O)O)cn(C4COC4)c3c2F)CC1` [Compound 108, 5-Amino-6,8-difluoro-7-(4-formimidoylpiperazin-1-yl)-1-(oxetan-3-yl)-1,4-dihydro-4-oxoquinoline-3-carboxylic acid hydrochloride] were, in that order, 0.78 µg/mL, 0.78 µg/mL and 3.13 µg/mL.
